Source: patent publication US20080027079A1, “DIHYDROOROTATE DEHYDROGENASE INHIBITORS WITH SELECTIVE ANTI-MALARIAL ACTIVITY” (Board of Regents, University of Texas System, priority 2006, published 2008)
Read-outs that look alike come from different tables or passages of the source.

Legend:
[1] = molecular target: T1, P. falciparum dihydroorotate dehydrogenase (pfDHODH) (Plasmodium falciparum, UniProt Q08210); assay: biochemical
T1 sequence (Q08210 24-569): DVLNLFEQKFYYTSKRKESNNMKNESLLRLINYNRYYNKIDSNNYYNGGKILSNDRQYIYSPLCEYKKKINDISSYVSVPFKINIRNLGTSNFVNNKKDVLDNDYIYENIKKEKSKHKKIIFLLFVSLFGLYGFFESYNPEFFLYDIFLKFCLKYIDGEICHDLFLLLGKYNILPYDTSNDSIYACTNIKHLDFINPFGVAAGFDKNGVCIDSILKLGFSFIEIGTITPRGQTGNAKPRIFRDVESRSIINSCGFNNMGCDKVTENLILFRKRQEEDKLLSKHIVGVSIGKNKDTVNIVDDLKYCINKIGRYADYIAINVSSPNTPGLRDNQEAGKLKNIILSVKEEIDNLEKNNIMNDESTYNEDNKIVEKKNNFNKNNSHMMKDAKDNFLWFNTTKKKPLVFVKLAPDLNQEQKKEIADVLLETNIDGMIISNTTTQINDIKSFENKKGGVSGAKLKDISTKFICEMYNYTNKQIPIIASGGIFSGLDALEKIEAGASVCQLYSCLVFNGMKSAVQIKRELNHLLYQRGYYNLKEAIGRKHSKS
Protocol: (§1) Measurement of enzyme inhibition. For studying inhibition of Plasmodium or human DHODH enzyme, two assays that are in routine use are described, for example, in Baldwin, et al. (2002) J Biol Chem., 277, 41827-41834, and Baldwin, et al. (2005) J. Biol. Chem., 280. 21847-21853. Briefly, these assays are as follows: 1) A […] assay thay that monitors 2,6-dichloroindophenol (DCIP) reduction at 600 nm (e=18.8 mM^−1 cm^−1) is performed as either a continuous assay where absorbance is recorded over time. The assay solution containing 100 mM HEPES, pH 8.0, 150 mM NaCl, 10% glycerol, 0.05% Triton X-[…] CoQ0 (coenzyme QD), […] L-dihydroorotate, and […] DCIP. Reactions are initiated by addition of enzyme to a final concentration of 5-50 nM and the temperature is maintained at 25° C with a circulating water bath. 2) A direct assay that follows the production of orotic acid by measuring the absorbance change at 287 nm (ε=4.3 mM^−1 cm^−1); DCIP is not included, but all other components of the assay are as described in method one. Inhibitor stocks are prepared in DMSO, and the inhibitors, such as GR-34, are added to these assays over a concentration range that encompasses their IC50 value and, the IC50's are determined from a plot of reaction rate in the presence of inhibitor/reaction rate in the absence of inhibitor (vi/vo) versus inhibitor concentration (Eq. 1). [formula]

[2] = molecular target: human dihydroorotate dehydrogenase (hDHODH) (Homo sapiens, UniProt Q02127); assay: hDHODH enzyme inhibition (DCIP colorimetric or direct orotate assay); assay type: biochemical
Protocol: as §1

P. falciparum 3D7 = assay: 3H-hypoxanthine uptake in P. falciparum-infected erythrocytes in culture (whole cell assay); assay type: cell-based; conditions: Plasmodium falciparum, Erythrocyte; 3D7 strain, in vitro
Protocol: In vitro evaluation of compound efficacy on the human malaria parasite, P. falciparum. To study inhibition of cell proliferation, ^3H-hypoxanthine uptake is measured in drug-treated, P. falciparum-infected erythrocytes grown in culture, pursuant to the methodology of Desjardins, et al. (1979) Antimicrobial Agents and Chemotherapy 16, 710-718, and Zhang and Rathod (2002) Science 296, 545-547.

human dihydroorotate dehydrogenase (hDHODH), sequence (Q02127 whole entry): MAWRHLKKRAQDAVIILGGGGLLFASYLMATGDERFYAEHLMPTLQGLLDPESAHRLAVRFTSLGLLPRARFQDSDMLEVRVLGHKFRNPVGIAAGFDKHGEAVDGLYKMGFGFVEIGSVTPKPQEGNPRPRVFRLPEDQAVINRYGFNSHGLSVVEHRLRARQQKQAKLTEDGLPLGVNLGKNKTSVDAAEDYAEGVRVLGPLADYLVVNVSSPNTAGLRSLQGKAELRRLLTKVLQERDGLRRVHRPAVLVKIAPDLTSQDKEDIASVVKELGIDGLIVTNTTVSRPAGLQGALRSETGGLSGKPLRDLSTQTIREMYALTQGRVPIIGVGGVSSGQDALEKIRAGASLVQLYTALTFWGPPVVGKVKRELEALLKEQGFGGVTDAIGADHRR

Compound	IC50 ([1]; read-out: IC50 pf DHODH) [nM]	IC50 [2] [µM]	EC50 (P. falciparum 3D7) [nM]	IC50 [1] [nM]
FC(F)(F)c1cc(Nc2ccc3ccccc3c2)n2ncnc2n1 [5-trifluoromethyl-N-(naphthalen-2-yl)-[1,2,4]triazolo[1,5-a]pyrimidin-7-amine]	126	> 200	–	–
Cc1nc2ncnn2c(Nc2ccc3cc4ccccc4cc3c2)c1C [N-(anthracen-2-yl)-5,6-dimethyl-[1,2,4]triazolo[1,5-a]pyrimidin-7-amine]	250	–	–	–
Cc1cc(Nc2ccc3cc4ccccc4cc3c2)n2ncnc2n1 [5-methyl-N-(anthracen-2-yl)-[1,2,4]triazolo[1,5-a]pyrimidin-7-amine]	23	> 200	120	–
Cc1cc(Nc2ccc3ccccc3c2)n2ncnc2n1 [5-methyl-N-(naphthalen-2-yl)-[1,2,4]triazolo[1,5-a]pyrimidin-7-amine]	–	> 600	50	–
CCc1cc(Nc2ccc3ccccc3c2)n2ncnc2n1 [5-ethyl-N-(naphthalen-2-yl)-[1,2,4]triazolo[1,5-a]pyrimidin-7-amine]	280	–	–	–
Cc1cc(Nc2ccc3c(=O)ccoc3c2)n2ncnc2n1 [5-methyl-N-(4H-chromen-4-on-7-yl)-[1,2,4]triazolo[1,5-a]pyrimidin-7-amine]	1900	> 200	–	–
Cc1nc2ncnn2c(Nc2ccc3ccccc3c2)c1C [5,6-dimethyl-N-(naphthalen-2-yl)-[1,2,4]triazolo[1,5-a]pyrimidin-7-amine]	130	–	–	–
CCc1cc(Nc2ccc3cc4ccccc4cc3c2)n2ncnc2n1 [N-(anthracen-2-yl)-5-ethyl-[1,2,4]triazolo[1,5-a]pyrimidin-7-amine]	240	–	–	–
Cc1cc(Nc2ccc3ncccc3c2)n2ncnc2n1 [5-methyl-N-(quinolin-6-yl)-[1,2,4]triazolo[1,5-a]pyrimidin-7-amine]	–	> 200	–	1300
Cc1cc(Nc2cc3ccccc3cc2O)n2ncnc2n1 [5-methyl-N-(3-hydroxynaphthalen-2-yl)-[1,2,4]triazolo[1,5-a]pyrimidin-7-amine]	2400	–	600	–
Cc1cc(Nc2cnc3ccccc3c2)n2ncnc2n1 [5-methyl-N-(quinolin-3-yl)-[1,2,4]triazolo[1,5-a]pyrimidin-7-amine]	2000	> 200	–	–
